{
  "source": "patent US10800824B2",
  "about": "“AIMP1 protein fragment and skin-protecting composition containing same as active ingredient” (NEOMICS CO., LTD., priority 2016, dated 2020)",
  "key": {"Raw 264.7 cells": {"system": "Raw 264.7 cells", "experiment": "TNF-alpha ELISA assay (TNF-alpha secretion)", "type": "cell-based", "conditions": "10 μM, 6 hours, FIG. 4", "procedure": "Raw 264.7 cells (ATCC TIB-71; 3,000 cells/well) were cultured for 12 hours in DMEM medium containing 10% serum in a 96-well plate, and then cultured in serum-free medium for about 3 hours. Then, Neo-Pep polypeptide (SEQ ID NO: 1) and its fragments (SEQ ID NOS: 2 to 4) were added to the DMEM medium with the concentration of 10 μM each, and then cultured for 6 hours.\nThen, the medium was collected and centrifuged at 1,000 g for 10 minutes, and secreted TNF-α was detected using a TNF-α ELISA assay (BD Biosciences, USA) according to the manufacturer's instructions."}, "[1]": {"system": "normal epithelium cells (vero)", "experiment": "Cytotoxicity assay (Cell Counting Kit-8 assay) on normal epithelium cells", "type": "cell-based", "conditions": "10 μM, 24 hours, CCK-8, FIG. 3", "procedure": "To confirm the proliferation and cytotoxicity of the fibroblasts, the CCK-8 assay (Cell Counting Kit-8 assay) of Dojindo Molecular Technologies (Japan) was performed according to the manufacturer's instructions.\nFirst, human foreskin fibroblast (3,000 cells/well; Promocell) and normal epithelium cells (vero; 3,000 cells/well) were cultured in DMEM medium containing 10% serum in 96-well plates for 12 hours, and then cultured in serum-free medium for about 3 hours. Then, Neo-Pep polypeptide (SEQ ID NO: 1) and fragments thereof (SEQ ID NOS: 2 to 4) were added to the DMEM medium with the concentration of 10 μM each, and then cultured for 24 hours.\nThen, 10 μl of CCK-8 solution (Dojindo Molecular Technologies, Japan) was added to each well of the medium, and the absorbance was analyzed at 450 nm using a microplate reader according to the manufacturer's instructions."}},
  "note": "No end group written: not given here.",
  "data": [
    {"sequence": "AVLKRLEQKGAEADQIIEYLKQQVSLLKEKAILQATLREEK [Neo-Pep]", "values": [
      {"measurement": "secreted TNF-alpha level versus control group", "setting": "Raw 264.7 cells", "result": "very low and similar to that of control group"}
    ]},
    {"sequence": "IEYLKQQVSLLKEKA [Polypeptide S1400, IEYLKQQVSLLKEKA]", "values": [
      {"measurement": "secreted TNF-alpha level versus control group", "setting": "Raw 264.7 cells", "result": "very low and similar to that of control group"},
      {"measurement": "epithelium cell viability versus control group", "setting": "[1]", "result": "slightly lower"}
    ]},
    {"sequence": "KGAEADQIIEYLKQQ [Polypeptide S1300, KGAEADQIIEYLKQQ]", "values": [
      {"measurement": "secreted TNF-alpha level versus control group", "setting": "Raw 264.7 cells", "result": "very low and similar to that of control group"}
    ]},
    {"sequence": "RLEQKGAEADQIIEY [Polypeptide S1200, RLEQKGAEADQIIEY]", "values": [
      {"measurement": "secreted TNF-alpha level versus control group", "setting": "Raw 264.7 cells", "result": "very low and similar to that of control group"}
    ]}
  ]
}
